# Assay results as given in publication PMC11943355, “Identification of a Novel Antagonist of BRS-3 from Natural Products and Its Protective Effects Against H2O2-Induced Cardiomyocyte Injury” (International Journal of Molecular Sciences, 2025).
# Experiments:
# Assay type in all cases: cell-based
# [1] = target: T1, BRS-3 (bombesin receptor subtype-3, BB3), murine (Mus musculus, UniProt O54798); experiment: inhibition of […] MK-5046-induced Ca2+ mobilization (FLIPR) in HEK293-mBRS-3 stable cells; also DMR (IC50 […])
# T1 construct: gene Brs3
# T1 sequence (O54798 1-399): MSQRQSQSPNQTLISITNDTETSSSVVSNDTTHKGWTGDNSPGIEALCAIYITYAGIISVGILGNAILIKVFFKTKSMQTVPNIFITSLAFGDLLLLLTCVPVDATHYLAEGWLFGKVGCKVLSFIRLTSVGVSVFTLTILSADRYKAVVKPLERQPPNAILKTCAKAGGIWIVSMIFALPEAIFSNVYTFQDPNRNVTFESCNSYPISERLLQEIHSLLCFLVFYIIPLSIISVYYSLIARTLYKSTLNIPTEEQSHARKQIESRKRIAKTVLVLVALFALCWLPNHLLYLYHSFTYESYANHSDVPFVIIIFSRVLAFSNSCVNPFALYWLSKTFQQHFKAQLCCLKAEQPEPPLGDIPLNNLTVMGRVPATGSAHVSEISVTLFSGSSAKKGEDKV
# [2] = target: T2, BRS-3 (bombesin receptor subtype-3, BB3), human (Homo sapiens, UniProt P32247); experiment: inhibition of […] MK-5046-induced IP1 accumulation (HTRF) in H1299-hBRS-3 stable cells
# T2 construct: gene BRS3
# T2 sequence (P32247 1-399): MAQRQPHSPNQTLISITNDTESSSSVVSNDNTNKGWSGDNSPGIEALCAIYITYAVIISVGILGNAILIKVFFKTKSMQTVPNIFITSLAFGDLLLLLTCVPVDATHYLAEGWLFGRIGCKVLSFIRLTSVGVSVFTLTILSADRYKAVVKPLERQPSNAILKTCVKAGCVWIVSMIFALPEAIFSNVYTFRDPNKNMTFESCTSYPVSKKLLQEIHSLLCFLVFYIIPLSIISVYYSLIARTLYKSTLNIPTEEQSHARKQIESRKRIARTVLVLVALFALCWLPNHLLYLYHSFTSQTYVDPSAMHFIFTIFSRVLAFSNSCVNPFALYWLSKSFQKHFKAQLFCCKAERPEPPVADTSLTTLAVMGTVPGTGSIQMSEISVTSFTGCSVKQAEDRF
# [3] = target: T1, BRS-3 (bombesin receptor subtype-3, BB3), murine; experiment: reference peptide antagonist; inhibition of […] MK-5046-induced Ca2+ mobilization (FLIPR) in HEK293-mBRS-3 stable cells
Compound,IC50 [1] [nM],IC50 [2] [nM],IC50 [3] [nM]
"CC(C)=CCc1c(O)ccc(-c2coc3cc(O)cc(O)c3c2=O)c1O [LIA, licoisoflavone A]",706,841,–
Bantag-1,–,–,2.32
